One assay concerns MYC. Kind of assay: Dog toxicology study, TaqMan mRNA in white blood cells after CDKI(7): MYC. It counts as in vivo. Here is the method:
(§1) As part of a dog toxicology study, CDKI(7) was administered to dogs. White blood cells were harvested and MEPCE, MYC and MCL1 gene expression was assessed as PD markers. mRNA levels of each of these PD markers were measured by TaqMan® at various time points after CDKI(7) treatment.
(§2) The study had three groups of three dogs each. Dogs in Group 1 (#101, #102, and #103) were treated with CDKI(7) at 0.5 mg/kg, dogs in Group 2 (#104, #105, and #106) were treated at 1 mg/kg CDKI(7) and dogs in Group 3 (#107, #108, and #109) were treated at 2 mg/kg CDKI(7). Samples were collected before treatment (0 hour), 3 hours, 7 hours and 24 hours after treatment for a total of 12 samples per group. Blood samples were received frozen in QIAGEN RNA protect® Animal Blood tubes (Cat. # 76554 QIAGEN-Valencia, Calif., USA). RNA samples were extracted using the QIAGEN RNeasy® Protect Animal Blood kit (Cat. # 73224). RNA samples were quantified using the RNA Quant-iT RNA® assay from Invitrogen (Cat. # Q32852 Invitrogen—Grand Island, N.Y., USA) and read on an Invitrogen Qubit fluorometer® (Cat. # Q32857). First strand cDNA synthesis was performed on 500 ng of RNA in a reaction volume of 20 μl using a High Capacity cDNA Reverse Transcription Kit® from Applied Biosystems (Cat. # 4368814 Applied Biosystems, Carlsbad, Calif., USA). The cDNA samples were then diluted to obtain a 10 ng cDNA input for the TaqMan® reaction. TaqMan® reactions were run in triplicates using a TaqMan® Gene Expression Master Mix from Applied Biosystems (Cat. # 4369016) on an ABI 7500® machine. The 18S rRNA level was used as an endogenous control for variations in cDNA input. The relative quantification method was used to analyze the data; this method uses one sample as a calibrator sample and express mRNA levels relative to that sample. The results were expressed as RQ values (Relative Quantification) with RQ Min and RQ Max values determining a 95% confidence interval for the real RQ value. The samples were grouped according to the dose and each group was treated as a separate experiment with one of the pre-dose samples used as a calibrator sample. The logarithm of the RQ values are plotted so that increases or decreases from the initial value can be more easily represented; on a logarithmic scale: a 10-fold increase or 10-fold decrease in RQ value are represented as +1 and −1 respectively.
The MYC transcription factor is a known oncogene and previous Examples have shown that its mRNA is short-lived and sensitive to CDK9 inhibition (see FIG. 2). The MYC mRNA levels were determined by TaqMan® using the relative quantification method. The calibrator samples are dog #101 at 0 hour timepoint for the 0.5 mg/kg dose of CDKI(7), dog #104 at 0 hour timepoint for the 1 mg/kg CDKI(7) dose and dog #107 at 0 hour timepoint for the 2 mg/kg CDKI(7) dose. The logarithm (base 10) of the RQ values is plotted with the error bars representing the 95% confidence interval.
For orientation: In qPCR the cycle at which signal appears reflects the starting amount.

Assay [1] has as its system MEPCE. Kind of assay: Dog toxicology study, TaqMan mRNA in white blood cells after CDKI(7): MEPCE. Format: in vivo. On the procedure:
as §1, §2
The mRNA levels were determined by TaqMan® using the relative quantification method. The calibrator samples are dog #101 at 0 hour timepoint for the 0.5 mg/kg dose of CDKI(7), dog #104 at 0 hour timepoint for the 1 mg/kg dose and dog #107 at 0 hour timepoint for the CDKI(7) 2 mg/kg dose. The logarithm (base 10) of the RQ values is plotted with the error bars representing the 95% confidence interval. […] The amplitude and the duration of the down regulation are dose-dependent; at 0.5 mg/kg CDKI(7) the maximum down regulation is 3.2-fold at 3 hours, at 1 mg/kg CDKI(7) it is 5.2-fold at 7 hours and at 2 mg/kg it is 14-fold at 7 hours.

In assay [2] the test system is MEPCE. Kind of assay: Western blot of MEPCE protein in NCI-H929 cells (FIG. 4). It counts as cell-based. On the procedure: After treatment with a CDKI, cells were lysed in modified RIPA buffer containing 50 mM TRIS pH 7.4, 150 mM NaCl, 1 mM EDTA, 1% Brij-35, 0.1% deoxycholate, protease inhibitors (Roche Molecular Biochemicals, Mannheim, Germany). SDS-PAGE (4-12% gel) was used to resolve the proteins in the lysate. After electrophoresis, the proteins were electrotransferred onto a polyvinylidene fluoride microporous membrane and immunodetected using standard procedures. FIG. 4 is a Western blot of the multiple myeloma line NCI-H929, treated with CDKI(7) or DMSO and gene expression analyzed at certain time points during the treatment. […] Thus, the reduction in expression of genes in response to CDKI seen at the mRNA level by microarray is confirmed at the protein level by Western blotting.
In general terms: A western blot detects proteins with antibodies after separation by electrophoresis.

In the next assay the test system is MCL1. The experiment in a line: Dog toxicology study, TaqMan mRNA in white blood cells after CDKI(7): MCL1. It counts as in vivo. On the procedure:
as §1, §2
The MCL1 gene encodes a pro-survival factor that is often amplified in cancer and we have previously shown that its mRNA is short-lived and sensitive to CDK9 inhibition (see FIG. 2). The mRNA levels were determined by TaqMan® using the relative quantification method. The calibrator samples are dog #101 at 0 hour timepoint for the 0.5 mg/kg dose of CDKI(7), dog #104 at 0 hour timepoint for the 1 mg/kg dose and dog #107 at 0 hour timepoint for the 2 mg/kg dose. The logarithm (base 10) of the RQ values is plotted with the error bars representing the 95% confidence interval.

Setting [3] is: 2 mg/kg, at 3 hours, all three dogs.

From patent publication US20140005070A1, “MARKERS ASSOCIATED WITH CYCLIN-DEPENDENT KINASE INHIBITORS” (Novartis AG, priority 2011, published 2014) come the findings set out here.

Structures are written as SMILES.

Consider `O=C(Nc1cc(-c2cccc(NCC3CCOCC3)n2)c(Cl)cn1)[C@@H]1CCCNC1` [CDKI(7)], for which the “MYC mRNA regulation” value is on record as “no significant down regulation” with MYC (0.5 mg/kg) and “consistent down regulation” with MYC (2 mg/kg, FIG. 7). Besides, the “increase of MYC mRNA” value in the assay on MYC (1 mg/kg, 3 or 7 hour time points) was 2 fold. The “maximum down regulation of MYC mRNA” value in the assay with MYC (setting [3]) is 3.8 fold. In addition, in the assay on MYC (2 mg/kg, at 7 hours), the “dogs showing MYC down regulation” value is 2 out of three. The “MYC mRNA levels by 24 hours” value with MYC (all doses, 24 hours) is on record as “trended back to pre-treatment levels”. The “maximum down regulation of MEPCE mRNA” value in the assay on MEPCE [1] (0.5 mg/kg, at 3 hours) turned out to be 3.2 fold; with MEPCE [1] (1 mg/kg, at 7 hours) it was 5.2 fold; in the assay on MEPCE [1] (2 mg/kg, at 7 hours) it was 14 fold. Besides, the “MEPCE mRNA levels at 24 hours” value in the assay on MEPCE [1] (2 mg/kg, one of the dogs (#109)) is “some degree of down regulation”; in the assay on MEPCE [1] (0.5 and 1 mg/kg), “back to pre-treatment levels”. In the assay on MEPCE [1] (all three doses (0.5, 1, 2 mg/kg), FIG. 6), the “MEPCE mRNA regulation” value is reported as “clear down regulation”. The “MEPCE protein expression at the 16 hour time point” value with MEPCE [2] (NCI-H929, Western blot, 16 hour) is listed as “very little to undetectable levels of protein expression”. The “MEPCE protein expression over time” value in the assay with MEPCE [2] (NCI-H929 multiple myeloma line, Western blot, versus DMSO) was “reduced over time”. Also, the “MCL1 mRNA regulation” value with MCL1 (0.5 mg/kg) was “no significant down regulation”; in the assay with MCL1 (2 mg/kg, FIG. 8) it was “consistent down regulation”. For the same compound, the “increase of MCL1 mRNA” value with MCL1 (1 mg/kg, 7 hour time point, two out of three dogs) came to 2 fold. Further, the “MCL1 down regulation at 7 hours” value in the assay on MCL1 (2 mg/kg, 7 hours) is recorded as “not at 7 hours”. Further, the “maximum down regulation of MCL1 mRNA” value with MCL1 (setting [3]) was found to be 2.7 fold.
